Counter-ions that a name gives are not always drawn.
Key:
MM and HeLa cells = assay: Annexin-V flow cytometry; format: cell-based; settings: 12 hr after treating
Experimental: Activation of ICE family members such as caspase-3 and -7 results in cleavage of poly ADP ribose polymerase (PARP) to 85 kDa and 25 kDa fragments and drives apoptosis.
Induction of apoptosis was determined using Annexin V-PE Apoptosis Detection Kit I (BD Pharmingen, San Diego, Calif.) according to the manufacturer's protocol.

C33A = assay: Cell viability after 48-hr treatment (Table 1); format: cell-based; settings: Homo sapiens, C-33-A; 48-hr treatment; XTT assay; read-out: IC50, C33A
Experimental: (§1) Cell viability was assayed using CellTiter 960 AQueous One Solution Reagent (Promega, Madison, Wis.). Cells seeded at the concentration of 1,000 cells/well for HeLa, 5,000 cells/well for ES2 and HCT116 and 10,000-20,000 cells/well for other cell lines in 100 μL medium in 96-well plate were treated with RA series compounds at specified concentrations. […]

SKOV3 = assay: Cell viability after 48-hr treatment (Table 1); format: cell-based; settings: Homo sapiens, SK-OV-3; 48-hr treatment; XTT assay; read-out: IC50, SKOV3
Experimental: as §1

MM.1S = assay: Cell viability after 48-hr treatment (Table 1); format: cell-based; settings: Homo sapiens, MM1.S, XTT assay
Experimental: as §1

FaDu = assay: Cell viability after 48-hr treatment (Table 1); format: cell-based; settings: Homo sapiens, FaDu; 48-hr treatment; XTT assay; read-out: IC50, FaDu
Experimental: as §1

CasKi = assay: Cell viability after 48-hr treatment (Table 1); format: cell-based; settings: Homo sapiens, Ca-Ski; 48-hr treatment; XTT assay; read-out: IC50, CasKi
Experimental: (§2) Cell viability was assayed using CellTiter 960 AQueous One Solution Reagent (Promega, Madison, Wis.). Cells seeded at the concentration of 1,000 cells/well for HeLa, 5,000 cells/well for ES2 and HCT116 and 10,000-20,000 cells/well for other cell lines in 100 μL medium in 96-well plate were treated with RA series compounds at specified concentrations. After the indicated periods, cells were incubated according to the manufacturer's protocol with the MTS labeling mixture for 1-2 hr and absorbance at 490 nm measured using a Benchmark Plus microplate spectrophotometer (BIO-RAD).

HOK-16B = assay: Cell viability after 48-hr treatment (Table 1); format: cell-based; settings: 48-hr treatment; XTT assay; read-out: IC50, HOK-16B
Experimental: as §2

HeLa cells [1] = assay: Cell surface HSP90 staining; format: cell-based, human; settings: 24 hr
Description: Cell surface HSP90 was detected by staining with purified anti-HSP90 mAb (Stressgen), followed by PE-conjugated anti-mouse IgG1. The data were acquired with a FACSCalibur and analyzed using CellQuest software.

NCl-H929 = assay: Cell viability after 48-hr treatment (Table 1); format: cell-based, human; settings: Homo sapiens, XTT assay
Experimental: (§3) Cells seeded at the concentration of 1,000 cells/well for HeLa, 5,000 cells/well for ES2 and HCT116 and 10,000-20,000 cells/well for other cell lines in 100 μL medium in 96-well plate were treated with RA series compounds at specified concentrations. […]

ES-2 = assay: Cell viability after 48-hr treatment (Table 1); format: cell-based, human; settings: Homo sapiens, ES-2, XTT assay
Experimental: as §3

4UbFL reporter = assay: Proteasome inhibition in vivo (4UbFL reporter bioluminescence); settings: i.m. electroporated 4UbFL; RA190 40 mg/kg i.p., bortezomib 1.5 mg/kg i.p.
Experimental: After the indicated time points of treatment, bioluminescence was measured by injection of luciferin and imaging with an IVIS 200 (fold change±SD, *p<0.05, **p<0.01).
Two hours after gene gun delivery of the plasmid or one day post electroporation, mice were injected i.p. with 100 uL of luciferin (3 mg/mL) and anesthetized with isoflurane and optical imaging was performed for basal level luciferase expression. Images were acquired for 10 min with a Xenogen IVIS 200 (Caliper, Hopkinton, Mass.). Equally sized areas were analyzed using Living Image 2.20 software.

purified 20S proteasomes = purified 20S proteasomes (Homo sapiens, UniProt P28072+P28074+Q99436); assay: 20S proteolytic activity assay; format: biochemical; settings: 1 μM, 30 min
Experimental: Actin was used as a loading control. […] In FIG. 9C-E, purified 20S proteasomes were treated for 30 min with or without compounds (1 μM) prior to the addition of the specific fluorogenic substrate for chymotryptic (9C), tryptic (9D) or PGPH (9E) hydrolytic proteasome capacities. […] DMSO was added to all samples to a final concentration of 0.1% (upper panel). The effect of DMSO is highlighted by including ubiquitin—AMC (0.5 μM) hydrolysis with 2 nM UCH37 lacking DMSO (orange, bottom panel). In FIG. 9H, purified 19S RP (500 nM) in buffer was treated with corresponding compounds 30 min at 37° C. and AMC cleavage was measured with a fluorometer for 20 min. Ubal was used as a positive control.
Release of free AMC by the enzyme reaction was determined by measuring its fluorescence at 380 nm (excitation) and 440 nm (emission). The graphs shown are representative of at least three independent determinations and each data point is the mean of ±SD of triplicate determinations.
20S proteasome cleaves the chymotryptic substrate and releases fluorescent AMC.

HT3 = assay: Cell viability after 48-hr treatment (Table 1); format: cell-based; settings: Homo sapiens, HT-3; 48-hr treatment; XTT assay; read-out: IC50, HT3
Experimental: as §3

SiHa = assay: Cell viability after 48-hr treatment (Table 1); format: cell-based; settings: Homo sapiens, SiHa; 48-hr treatment; XTT assay; read-out: IC50, SiHa
Experimental: as §3

RPMI8226 = assay: Cell viability after 48-hr treatment (Table 1); format: cell-based; settings: Homo sapiens, RPMI-8226, XTT assay
Experimental: as §3

HaCaT = assay: Cell viability after 48-hr treatment (Table 1); format: cell-based; settings: Homo sapiens, HaCaT; 48-hr treatment; XTT assay; read-out: IC50, HaCaT
Experimental: as §3

HeLa = assay: Cell viability after 48-hr treatment (Table 1); format: cell-based, human; settings: Homo sapiens, HeLa; 48-hr treatment; XTT assay; read-out: IC50, HeLa
Experimental: as §1

OVCAR3 = assay: Cell viability after 48-hr treatment (Table 1); format: cell-based, human; settings: Homo sapiens, OVCAR-3, XTT assay
Experimental: as §1

[2] = Complete blood counts and blood chemistry of C57BL/6 mice carrying TC-1 tumor; settings: C57BL/6 mice with TC-1 tumor; nine doses every third day: RA190 40 mg/kg p.o., Bortezomib 1.5 mg/kg i.p.; mean ± SD, n = 3;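 further: blood drawn from the heart after euthanasia, cell counts read on an automated hemocytometer, heparinized plasma analyzed on an automated clinical chemistry analyzer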
HeLa cells [3] = assay: Drug combination index assay; format: cell-based, human; settings: Homo sapiens, 48 hr, read-out: IC50 (single agent, Compusyn)
Experimental: The combination indices and a normalized isobologram were calculated using Compusyn software (www.combosyn.com).

U266 cells = assay: Active caspase-3 by FACS; format: cell-based; settings: 0.5 μM, 8 h
Experimental: U266 cells were treated with RA195 (0.5 μM) and Bz(0.5 μM) for the period of 8 h. Cells were stained for PE-conjugated Caspase-3 antibody and measured active caspase-3 by FACS.

NCI-H929 cells = assay: Active caspase-3 by FACS; format: cell-based, human; settings: 0.5 μM, 8 h
Experimental: NCI-H929 cells were treated with RA195 (0.5 μM) and Bz(0.5 μM) for the period of 8 h. Cells were stained for PE-conjugated Caspase-3 antibody and measured active caspase-3 by FACS.

cancer cells = assay: Antiproliferative activity against cancer cells (design rationale); format: cell-based
Description: We used Chloro and Nitro functional groups as substituent's on the aromatic ring due to their greater electron withdrawing effect at ortho (or) para (or) meta (or) both positions along with different amino acid linkages on bis-benzylidine piperidone moiety. Amino acids were chosen based in their physical characteristics like very hydrophobic (phenylalanine), strongly basic and hydrophilic (lysine), basic and hydrophilic (histidine) and amphiphilic (glycine). Commercially available Fmoc and Boc protected amino acids were used in the synthesis, and they were evaluated for their antiproliferatory activity against cancer cells.
Next we synthesized another set of compounds by converting free amine functionality to its Acetate (Ac), Acrolyl (Acr) and Benzoyl […] analogs as these units are part of many anticancer drugs because of their smaller size and feasibility to form inter molecular hydrogen bonds with proteins.
In the RA195 molecule two amino functionalities of lysine can provide more flexibility to make better analogs.

Q: Which results are given for `CC(C)C[C@H](NC(=O)[C@H](Cc1ccccc1)NC(=O)c1cnccn1)B(O)O` [Bortezomib, reference compound]?
A: apoptosis (Annexin-V) (MM and HeLa cells): trigger extensive apoptosis; IC50 (C33A): < 2500 nM; IC50 (SKOV3): < 2500 nM; IC50 (MM.1S): 5 nM; IC50 (FaDu): < 2500 nM; IC50 (CasKi): 50 nM; IC50 (HOK-16B): 20 nM; cells with cell-surface HSP90 (HeLa cells [1]): 12.8%; IC50 (NCl-H929): 5 nM; IC50 (ES-2): 20 nM; bioluminescence compared to vehicle alone, 4 hr after treatment (4UbFL reporter): 2 fold; increase in bioluminescence, one day post-treatment (4UbFL reporter): 4 fold; chymotryptic activity of the 20S proteasome (Suc-LLVY-AMC) (purified 20S proteasomes): inhibits; IC50 (HT3): < 2500 nM; IC50 (SiHa): 1000 nM; IC50 (RPMI8226): 10 nM; IC50 (HaCaT): < 2500 nM; IC50 (HeLa): 30 nM; IC50 (OVCAR3): < 2500 nM; ALBNEW (Albumin) [2]: 2.50 ± 0.10; ALPNEW (Alkaline Phosphatase) [2]: 49 ± 5.29; ALTNEW (Alanine Aminotransferase) [2]: 26.33 ± 2.51; AMYL (Amylase) [2]: 473 ± 57.86; ASTNEW (Aspartate aminotransferase) [2]: 53 ± 18.52; BA(Basophils) [2]: 0.07 ± 0.06; BUNNEW (Blood Urea Nitrogen) [2]: 22.66 ± 5.13; CA (Calcium) [2]: 8.83 ± 0.60; CHOL (Cholesterol) [2]: 69 ± 7.93; CK_NEW (Creatinine Kinase) [2]: 93.66 ± 3.52; CREAT (Creatinine) [2]: 0.33 ± 0.05; EO (Eosinophils) [2]: 0.64 ± 0.48; GGTNEW (Gamma-Glutamyl Transferase) [2]: 5.00 ± 0.67; GLU (Glucose) [2]: 128 ± 20.29; HCT(Hematocrit) [2]: 42.36 ± 4.15; HDLNEW (High Density Lipoprotein) [2]: 28.33 ± 4.61; Hb (Hemoglobin) [2]: 11.3 ± 0.70; LDH (lactate Dehydrogenase) [2]: 245.33 ± 96; LY(Lymphocytes) [2]: 2.12 ± 1.83; MCHC (mean corpuscular hemoglobin concentration) [2]: 26.73 ± 1.16; MCV (Mean corpuscular Volume) [2]: 55.66 ± 1.72; MO(Monocytes) [2]: 0.20 ± 0.13; MPV (Mean Platelet Volume) [2]: 5.40 ± 0.10; NE(Neutrophils) [2]: 24.06 ± 15.07; PLT (Platelet) [2]: 1346 ± 87.5; RDW (Red Blood Cell Distribution Width) [2]: 20.13 ± 0.61; TBIL1 (Total bilirubin) [2]: 0.26 ± 0.05; TPROT (Total protein) [2]: 4.40 ± 0.26; TRIG (Triglycerides) [2]: 56.66 ± 15.88; UA (Uric Acid) [2]: 2.73 ± 0.87; WBC(White Blood Cells) [2]: 24.85 ± 23.94; IC50 (HeLa cells [3]): 21.7 nM

Q: Which results are given for `Cl.N[C@@H](Cc1ccccc1)C(=O)N1C/C(=C\c2ccc([N+](=O)[O-])cc2)C(=O)/C(=C/c2ccc([N+](=O)[O-])cc2)C1` [RA183]?
A: active caspase-3 (U266 cells): caused an increase in caspase-3 expression; active caspase-3 (NCI-H929 cells): caused an increase in caspase-3 expression; chymotryptic activity of the 20S proteasome (Suc-LLVY-AMC) (purified 20S proteasomes): do not; antiproliferative potency among analogs (cancer cells): higher potency

Q: For `CC(=O)N[C@@H](Cc1ccccc1)C(=O)N1C/C(=C\c2ccc(Cl)c(Cl)c2)C(=O)/C(=C/c2ccc(Cl)c(Cl)c2)C1` [RA190Ac, 3,5-bis(3,4-dichlorobenzylidene)-1-(N-(1-oxo-S-3-phenyl-1-propan-2-yl)acetamide)-piperidin-4-one-HCl salt], which IC50 (C33A) is on record?
A: > 5000 nM

Q: And the IC50 (SKOV3)?
A: > 2500 nM

Q: What about the IC50 (MM.1S) of the same molecule?
A: 50 nM

Q: And the IC50 (FaDu)?
A: > 2500 nM

Q: And the IC50 (CasKi)?
A: 300 nM

Q: What about the IC50 (HOK-16B) of the same molecule?
A: 750 nM

Q: And the IC50 (NCl-H929)?
A: 75 nM

Q: What about the IC50 (HT3) of the same molecule?
A: > 5000 nM

Q: What about the IC50 (SiHa) of the same molecule?
A: 1000 nM

Q: And the IC50 (RPMI8226)?
A: 150 nM

Q: And the IC50 (HaCaT)?
A: > 2500 nM

Q: What about the IC50 (HeLa) of the same molecule?
A: 170 nM

Q: What about the IC50 (OVCAR3) of the same molecule?
A: 2000 nM

Source: patent publication US10500198B2, “Bis-benzylidine piperidone proteasome inhibitor with anticancer activity” (The Johns Hopkins University, priority 2013, dated 2019)
